Active and inactive are the calls of the source. The calls are words filed in the database; no cut-off is given here.
Legend:
HeLa [1] = test: Antiproliferative activity against BRCA1 deficient human HeLa cells after 7 days by cell titer-blue assay; format: functional; conditions: 168 h
PARP 1, 2 and 3 [2] = molecular target: T1, PARP 1, 2 and 3 (Homo sapiens, UniProt P09874+Q9Y6F1+Q9UGN5); test: Inhibition of PARP in hydrogen peroxide-induced human HeLa cells assessed as inhibition DNA-damage-induced PARylation; format: cell-based
PARP 1, 2 and 3 [3] = molecular target: T1, PARP 1, 2 and 3; conditions: HeLa
HeLa [4] = test: Antiproliferative activity against human HeLa cells expressing wild type BRCA1 after 7 days by cell titer-blue assay; format: functional; conditions: 168 h
[5] = molecular target: Poly [ADP-ribose] polymerase 1 (Homo sapiens, UniProt P09874); test: Inhibition of human PARP1 by SPA
Chain of Poly [ADP-ribose] polymerase 1 (P09874 whole entry): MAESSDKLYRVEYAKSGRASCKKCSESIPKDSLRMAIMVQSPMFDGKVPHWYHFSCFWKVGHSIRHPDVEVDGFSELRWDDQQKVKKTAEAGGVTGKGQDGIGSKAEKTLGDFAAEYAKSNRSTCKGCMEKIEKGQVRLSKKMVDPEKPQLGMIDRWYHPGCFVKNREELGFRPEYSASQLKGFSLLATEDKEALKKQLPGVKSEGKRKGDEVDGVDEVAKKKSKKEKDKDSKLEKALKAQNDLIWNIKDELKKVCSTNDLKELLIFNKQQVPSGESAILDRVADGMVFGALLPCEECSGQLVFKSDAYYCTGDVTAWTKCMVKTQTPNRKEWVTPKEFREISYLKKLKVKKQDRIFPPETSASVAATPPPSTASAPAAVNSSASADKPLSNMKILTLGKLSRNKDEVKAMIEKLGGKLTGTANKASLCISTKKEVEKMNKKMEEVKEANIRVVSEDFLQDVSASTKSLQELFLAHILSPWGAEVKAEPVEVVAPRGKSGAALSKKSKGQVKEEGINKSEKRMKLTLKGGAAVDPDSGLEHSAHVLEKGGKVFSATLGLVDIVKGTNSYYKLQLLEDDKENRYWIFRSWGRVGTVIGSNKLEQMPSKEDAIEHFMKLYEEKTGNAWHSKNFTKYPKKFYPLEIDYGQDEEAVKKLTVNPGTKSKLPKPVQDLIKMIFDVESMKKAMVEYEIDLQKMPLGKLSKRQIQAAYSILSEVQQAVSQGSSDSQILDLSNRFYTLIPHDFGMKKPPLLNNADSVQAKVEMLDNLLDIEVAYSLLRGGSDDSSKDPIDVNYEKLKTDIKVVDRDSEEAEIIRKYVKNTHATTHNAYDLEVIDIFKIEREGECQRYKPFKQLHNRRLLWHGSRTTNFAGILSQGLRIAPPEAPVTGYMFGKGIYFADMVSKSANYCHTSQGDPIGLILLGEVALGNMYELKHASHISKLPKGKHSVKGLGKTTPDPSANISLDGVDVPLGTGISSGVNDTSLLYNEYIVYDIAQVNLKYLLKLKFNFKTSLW

[6] = Oral bioavailability in rat; format: ADME, organism-based; conditions: in vivo
[7] = Intrinsic clearance in rat liver microsomes assessed per mg of protein up to 90 mins; format: ADME, Microsome
[8] = Intrinsic clearance in mouse liver microsomes assessed per mg of protein up to 90 mins; format: ADME, Microsome
[9] = Volume of distribution in rat; format: ADME, organism-based; conditions: in vivo
[10] = Plasma clearance in rat; format: ADME, organism-based
[11] = Terminal half life in rat; format: ADME, organism-based; conditions: in vivo, read-out: beta t1/2 (converted)
Cytochrome P450 1A2 = molecular target: T2, Cytochrome P450 1A2 (Rattus norvegicus, UniProt P04799); test: (§1) Intrinsic clearance in rat liver microsomes assessed per mg of protein up to 60 mins in presence of rat recombinant CYP1A2; format: ADME, Microsome; conditions: microsomes, 1 h
T2 sequence (P04799 whole entry): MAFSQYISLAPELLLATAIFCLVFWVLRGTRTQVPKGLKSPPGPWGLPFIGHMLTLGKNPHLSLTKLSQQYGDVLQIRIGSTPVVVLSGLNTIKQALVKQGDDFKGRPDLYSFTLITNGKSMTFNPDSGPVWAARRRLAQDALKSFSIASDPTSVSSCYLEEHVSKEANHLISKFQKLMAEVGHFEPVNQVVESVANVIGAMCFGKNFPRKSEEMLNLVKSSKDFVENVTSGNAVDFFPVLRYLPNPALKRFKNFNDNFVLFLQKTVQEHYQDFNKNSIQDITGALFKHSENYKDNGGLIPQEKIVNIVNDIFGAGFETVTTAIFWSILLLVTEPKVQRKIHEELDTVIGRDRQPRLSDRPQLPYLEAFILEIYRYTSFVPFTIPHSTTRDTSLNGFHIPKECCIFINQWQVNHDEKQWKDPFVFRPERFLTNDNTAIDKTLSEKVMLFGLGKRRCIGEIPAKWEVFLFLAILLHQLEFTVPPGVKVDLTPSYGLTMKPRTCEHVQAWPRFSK

CYP1A2 = molecular target: T3, CYP1A2 (Rattus norvegicus, UniProt P04799); test: as §1; format: ADME, Microsome; conditions: rat liver microsomes with rat recombinant CYP1A2
T3 sequence (P04799 whole entry): T2 sequence (P04799 whole entry)

cells = conditions: Homo sapiens, MDA-MB-436, 144 h
Description: Antiproliferative activity against human MDA-MB-436 cells expressing BRCA1 5396 + 1G>A mutant after 6 days by cell titer-blue assay

[12] = Antiproliferative activity against human PrEC cells after 6 to 7 days by cell titer-blue assay
CAPAN-1 = test: cells; conditions: Homo sapiens, CAPAN-1, 312 h
Description: Antiproliferative activity against human Capan1 cells expressing BRCA2 6174delT mutation and loss of wild-type allele after 13 days by cell titer-blue assay

MDA-MB-436 [13] = conditions: Homo sapiens, 50 mg/kg
Description: Antitumor activity against human MDA-MB-436 cells expressing BRCA1 5396 + 1G>A mutant xenografted in CD1 mouse assessed as tumor regression at 50 mg/kg, po bid for 33 days

MDA-MB-436 [14] = conditions: Homo sapiens, 100 mg/kg
Description: Antitumor activity against human MDA-MB-436 cells expressing BRCA1 5396 + 1G>A mutant xenografted in CD1 mouse assessed as tumor regression at 100 mg/kg, po qd for 33 days

[15] = Antiproliferative activity against HMEC after 6 to 7 days by cell titer-blue assay; conditions: human, HMEC cells
[16] = Biodistribution in iv dosed rat urine within 24 hrs; format: ADME, organism-based; conditions: in vivo
[17] = Intrinsic clearance in rat lung microsomes assessed per mg of protein in presence of NADPH; format: ADME, Microsome
[18] = Intrinsic clearance in rat liver microsomes assessed per mg of protein in presence of NADPH; format: ADME, Microsome
[19] = Intrinsic clearance in rat intestine microsomes assessed per mg of protein in presence of NADPH; format: ADME, Microsome
[20] = Intrinsic clearance in rat kidney microsomes assessed per mg of protein in presence of NADPH; format: ADME, Microsome
[21] = Metabolic stability in rat heart microsomes assessed as compound degradation in presence of NADPH; format: ADME
HeLa [22] = test: Selectivity index, ratio of CC50 for BRCA1 proficient human HeLa cells to CC50 for BRCA1 deficient human HeLa cells; format: functional
[23] = Biodistribution in iv dosed rat urine assessed as tert-butyl (3S)-3-{4-[7-(aminocarbonyl)-2H-indazol-2-yl]phenyl}piperidine-1-carboxylate level within 24 hrs; format: ADME, organism-based; conditions: in vivo
[24] = Solubility in phosphate buffer; format: physicochemical

Structure (SMILES) | EC90 (PARP 1, 2 and 3 [3]) | IC50 [5] | microsomal CLint [7] | microsomal CLint [8] | clearance [10] | microsomal CLint (CYP1A2) | CC50 (HeLa [1]) | EC50 (PARP 1, 2 and 3 [2]) | CC50 (HeLa [4]) | also measured
NC(=O)c1cccc2cn(-c3ccc(CN4CCOCC4)cc3)nc12 | 6200 nM | 17 nM | – | – | – | – | 5300 nM | 1200 nM | > 20000 nM | –
NC(=O)c1cccc2cn(-c3ccc(C4CCCNC4)cc3)nc12 (stereo not given) | 220 nM | – | 11 µL/min/mg | 1 µL/min/mg | 47 mL/min/kg | – | 72 nM | – | 2000 nM | CL (Cytochrome P450 1A2): 0.3 µL/min/mg; bioavailability [6]: 74%
NC(=O)c1cccc2cn(-c3ccc(C4CCCN4)cc3)nc12 (stereo not given) | 430 nM | 3.1 nM | 22 µL/min/mg | 4 µL/min/mg | – | 2.5 µL/min/mg | 190 nM | 31 nM | 10000 nM | –
CNCc1cccc(-n2cc3cccc(C(N)=O)c3n2)c1 | – | 5.3 nM | 32 µL/min/mg | 5 µL/min/mg | 69 mL/min/kg | 5.4 µL/min/mg | 10300 nM | – | > 20000 nM | –
NC(=O)c1cccc2cn(-c3ccc(C4CCNCC4)cc3)nc12 | – | 9 nM | 15 µL/min/mg | 5 µL/min/mg | – | < 0.1 µL/min/mg | 410 nM | – | 4500 nM | –
NC(=O)c1cccn2nc(-c3ccccc3)nc12 | – | 270 nM | – | – | – | – | – | – | – | –
CNCCc1ccc(-n2cc3cccc(C(N)=O)c3n2)cc1 | – | 200 nM | – | – | – | – | 19000 nM | – | > 20000 nM | –
CCNCc1ccc(-n2cc3cccc(C(N)=O)c3n2)cc1 | 2100 nM | 4.3 nM | – | – | – | – | 1600 nM | 150 nM | 7400 nM | –
NC(=O)c1cccc2cc(-c3ccccc3)nn12 | – | 55 nM | – | – | – | – | – | – | – | –
NC(=O)c1cccc2cn(-c3ccc(CN4CCCCC4)cc3)nc12 | 970 nM | 1.9 nM | 29 µL/min/mg | 3 µL/min/mg | 107 mL/min/kg | 3.8 µL/min/mg | 880 nM | 180 nM | 5800 nM | Selectivity Index (HeLa [22]): 5
CN1CCN(Cc2ccc(-n3cc4cccc(C(N)=O)c4n3)cc2)CC1 | 2700 nM | 31 nM | 34 µL/min/mg | 2 µL/min/mg | 8 mL/min/kg | < 0.1 µL/min/mg | 2700 nM | 1100 nM | 7900 nM | bioavailability [6]: 11%; Selectivity Index (HeLa [22]): 3
NC(=O)c1cccc2cn(Cc3ccccc3)nc12 | > 5000 nM | 130 nM | – | – | – | – | – | > 5000 nM | – | –
NC(=O)c1cccc2cn(-c3ccc4c(c3)CNCC4)nc12 | 310 nM | 2.2 nM | 52 µL/min/mg | 4 µL/min/mg | 87 mL/min/kg | 0.7 µL/min/mg | 130 nM | 46 nM | 2200 nM | Selectivity Index (HeLa [22]): 16
CN(C)Cc1ccc(-n2cc3cccc(C(N)=O)c3n2)cc1 | 630 nM | 3.7 nM | 177 µL/min/mg | 1 µL/min/mg | 450 mL/min/kg | – | 520 nM | 110 nM | 5600 nM | CL (Cytochrome P450 1A2): 8.7 µL/min/mg; solubility [24]: > 3000 µg/mL; Selectivity Index (HeLa [22]): 10
NC(=O)c1cccc2nn(-c3ccccc3)nc12 | – | 71 nM | – | – | – | – | – | – | – | –

The next lines start with results.

EC90 (PARP 1, 2 and 3 [3]) | IC50 [5] | microsomal CLint [7] | microsomal CLint [8] | clearance [10] | microsomal CLint (CYP1A2) | Structure (SMILES) | CC50 (HeLa [1]) | EC50 (PARP 1, 2 and 3 [2]) | CC50 (HeLa [4]) | also measured
6200 nM | 24 nM | 123 µL/min/mg | 138 µL/min/mg | 30 mL/min/kg | – | NC(=O)c1cccc2cn(-c3ccccc3)nc12 | – | 3700 nM | – | bioavailability [6]: 41%; Vd [9]: 1.8 L/kg; half-life [11]: 5.1 h
4400 nM | 5.9 nM | – | – | – | – | CN(C)CCN(C)Cc1ccc(-n2cc3cccc(C(N)=O)c3n2)cc1 | 3900 nM | 170 nM | > 20000 nM | –
900 nM | 16 nM | 11 µL/min/mg | < 1 µL/min/mg | – | – | CNC(C)(C)c1ccc(-n2cc3cccc(C(N)=O)c3n2)cc1 | 920 nM | 110 nM | 5500 nM | CL (Cytochrome P450 1A2): 0.4 µL/min/mg
280 nM | – | 7 µL/min/mg | 3 µL/min/mg | 24 mL/min/kg | < 0.1 µL/min/mg | NC(=O)c1cccc2cn(-c3ccc([C@H]4CCCNC4)cc3)nc12 | 470 nM | – | 5700 nM | bioavailability [6]: 47%
45 nM | – | 16 µL/min/mg | 4 µL/min/mg | 28 mL/min/kg | – | NC(=O)c1cccc2cn(-c3ccc([C@@H]4CCCNC4)cc3)nc12 [NIRAPARIB] | 33 nM | – | 860 nM | CC50 (cells): 18 nM; CC50 [12]: > 5000 nM; CL (Cytochrome P450 1A2): 0.3 µL/min/mg; bioavailability [6]: 65%; CC50 (CAPAN-1): 90 nM; inhibition (MDA-MB-436 [13]): Active; inhibition (MDA-MB-436 [14]): Active; CC50 [15]: > 5000 nM
740 nM | 3.8 nM | 28 µL/min/mg | 3 µL/min/mg | 220 mL/min/kg | 6 µL/min/mg | CNCc1ccc(-n2cc3cccc(C(N)=O)c3n2)cc1 | 460 nM | 68 nM | 5400 nM | Drug uptake [16]: 80 %ID; bioavailability [6]: 23%; microsomal CLint [17]: 22 µL/min/mg; microsomal CLint [18]: 28 µL/min/mg; microsomal CLint [19]: 5 µL/min/mg; microsomal CLint [20]: 22 µL/min/mg; Stability [21]: Stable; Selectivity Index (HeLa [22]): 10; Drug uptake [23]: 50 %ID
7600 nM | 14 nM | – | – | – | – | NC(=O)c1cccc2cn(-c3ccc(CNCC(F)F)cc3)nc12 | > 6600 nM | 3400 nM | > 6600 nM | –
450 nM | 4.8 nM | – | – | – | – | NC(=O)c1cccc2cn(-c3ccc(CN4CCCC4)cc3)nc12 | 1200 nM | 94 nM | 8100 nM | Selectivity Index (HeLa [22]): 5
6700 nM | 24 nM | – | – | – | – | NC(=O)c1cccc2cn(-c3ccc(Cl)cc3)nc12 | – | 720 nM | – | –
– | 2.1 nM | – | – | – | – | NC(=O)c1cccc2cn(-c3ccc(CNCCF)cc3)nc12 | – | > 5000 nM | – | –
5600 nM | 14 nM | – | – | – | – | NC(=O)c1cccc2cn(-c3cccc(Cl)c3)nc12 | – | 450 nM | – | –
2000 nM | 6.7 nM | 18 µL/min/mg | 1 µL/min/mg | 131 mL/min/kg | 0.8 µL/min/mg | CC(C)NCc1ccc(-n2cc3cccc(C(N)=O)c3n2)cc1 | 2000 nM | 700 nM | 10000 nM | –
680 nM | 3.7 nM | 9 µL/min/mg | 1 µL/min/mg | 58 mL/min/kg | 2.2 µL/min/mg | CNC(C)c1ccc(-n2cc3cccc(C(N)=O)c3n2)cc1 (stereo not given) | 3100 nM | 58 nM | 14000 nM | –
140 nM | 1.4 nM | 36 µL/min/mg | 3 µL/min/mg | – | – | NC(=O)c1cccc2cn(-c3ccc4c(c3)CCNC4)nc12 | 270 nM | 13 nM | 5400 nM | CL (Cytochrome P450 1A2): 0.7 µL/min/mg; bioavailability [6]: 22%; Selectivity Index (HeLa [22]): 20
– | 100 nM | – | – | – | – | NC(=O)c1cccc2cn(-c3ccccc3Cl)nc12 | – | – | – | –
